From the supplement of paper PMC11061612

Legend:
Assay in all cases: Bliss excess, mean over the matrix (fraction); higher = more synergy
[1] = test system: 8305C (Thyroid Gland Carcinoma)
In short: (§1)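 Bliss excess equals the observed combination effect minus the expected value EA + EB − EA·EB, where EA and EB are the effects of each agent alone. Combination Emax is the second-highest inhibition within the matrix. Inhibition was scaled from CellTiter-Glo 2.0 luminescence, with 0 set by vehicle wells and 1 by blank wells, after 72 hours of two-drug dosing of cells plated in 1536-well plates.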

[2] = test system: CAL-51 (Breast Carcinoma)
In short: as §1

[3] = test system: CAL-54 (Kidney Carcinoma)
In short: as §1

[4] = test system: HCC-15 (Squamous Cell Lung Carcinoma)
In short: as §1

[5] = test system: HDLM-2 (Hodgkin's Lymphoma)
In short: as §1

[6] = test system: K5 (Thyroid Gland Carcinoma)
In short: as §1

[7] = test system: KYSE-410 (Esophageal Squamous Cell Carcinoma)
In short: as §1

[8] = test system: LU-139 (Small Cell Lung Carcinoma)
In short: as §1

[9] = test system: MHH-PREB-1 (B-Cell Non-Hodgkin's Lymphoma)
In short: as §1

Mewo (Melanoma) = test system: Mewo (Melanoma)
In short: as §1

NCI-H2461 (Mesothelioma) = test system: NCI-H2461 (Mesothelioma)
In short: as §1

NCI-H2795 (Mesothelioma) = test system: NCI-H2795 (Mesothelioma)
In short: as §1

NCI-H28 (Mesothelioma) = test system: NCI-H28 (Mesothelioma)
In short: as §1

[10] = test system: OC-314 (Ovarian Carcinoma)
In short: as §1

[11] = test system: RKO (Colorectal Carcinoma)
In short: as §1

[12] = test system: SK-OV-3 (Ovarian Carcinoma)
In short: as §1

[13] = test system: SU-DHL-6 (B-Cell Non-Hodgkin's Lymphoma)
In short: as §1

[14] = test system: SW1116 (Colorectal Carcinoma)
In short: as §1

[15] = test system: SW1271 (Small Cell Lung Carcinoma)
In short: as §1

[16] = test system: SW626 (Colorectal Carcinoma)
In short: as §1

SMILES | Bliss excess [1] | Bliss excess [2] | Bliss excess [3] | Bliss excess [4] | Bliss excess [5] | Bliss excess [6] | Bliss excess [7] | Bliss excess [8] | Bliss excess [9] | Bliss excess (Mewo (Melanoma)) | Bliss excess (NCI-H2461 (Mesothelioma)) | Bliss excess (NCI-H2795 (Mesothelioma)) | Bliss excess (NCI-H28 (Mesothelioma)) | Bliss excess [10] | Bliss excess [11] | Bliss excess [12] | Bliss excess [13] | Bliss excess [14] | Bliss excess [15] | Bliss excess [16]
C[C@@H](c1ccc2nccn2c1)n1nnc2ncc(-c3cnn(C)c3)nc21 [Savolitinib] + CC1(C)CCC(CN2CCN(c3ccc(C(=O)NS(=O)(=O)c4ccc(NCC5CCOCC5)c([N+](=O)[O-])c4)c(Oc4cnc5[nH]ccc5c4)c3)CC2)=C(c2ccc(Cl)cc2)C1 [Venetoclax] (first compound max 1 µM, 7x7, partner max 1 µM) | -0.115 | -0.0522 | -0.102 | -0.0229 | -0.0465 | -0.0374 | -0.0726 | -0.0256 | -0.0286 | -0.0647 | -0.0641 | 0.0032 | -0.0481 | -0.0046 | -0.05 | -0.0511 | 0.0481 | -0.0595 | -0.0436 | -0.066
CN(C)CCCOc1ccc(-c2ccc3ncc4c(c3c2)n(C2CCOCC2)c(=O)n4C)cn1 [AZD0156] + CCN(CCO)CCCOc1ccc2c(Nc3cc(CC(=O)Nc4cccc(F)c4)[nH]n3)ncnc2c1 [AZD2811] (first compound max 1 µM, 7x7, partner max 1 µM) | -0.0794 | 0.0226 | -0.0129 | -0.0506 | -0.0208 | -0.0334 | -0.0431 | -0.0441 | 0.0053 | -0.0477 | -0.0293 | 0.0025 | -0.0381 | 0.0078 | 0.014 | -0.0533 | -0.0026 | -0.0339 | -0.0322 | -0.0392
Cc1nc(Nc2ncc(C(=O)Nc3c(C)cccc3Cl)s2)cc(N2CCN(CCO)CC2)n1 [Dasatinib] + CC(=O)Nc1cccc(-n2c(=O)n(C3CC3)c(=O)c3c(Nc4ccc(I)cc4F)n(C)c(=O)c(C)c32)c1 [Trametinib] (first compound max 2 µM, 7x7, partner max 1 µM) | 0.0279 | -0.017 | -0.0031 | 0.193 | -0.0467 | 0.0175 | -0.0622 | -0.0243 | -0.0504 | 0.0254 | -0.0384 | -0.0513 | -0.0021 | 0.0153 | 0.119 | -0.075 | 0.0272 | 0.0459 | 0.119 | 0.0385
COc1cccc(OCCCN)c1-c1cc(Nc2cnc(C#N)cn2)n[nH]1 [Prexasertib] + Cc1cc2ncnn2cc1Nc1ncc2c(n1)n(C1CCOCC1)c(=O)n2C [AZD7648] (first compound max 1 µM, 7x7, partner max 10 µM) | -0.0726 | 0.0069 | -0.0483 | 0.0328 | -0.0934 | -0.0405 | -0.0267 | -0.015 | -0.0322 | -0.0079 | -0.0428 | -0.0556 | -0.0397 | -0.0286 | -0.0193 | -0.0686 | 0.0159 | -0.0183 | -0.0014 | 0.0236
Cc1c2c(nn1C)CSCc1cc(n(C)n1)CSc1cc(c3ccccc3c1)OCCCc1c(C(=O)O)n(C)c3c-2c(Cl)ccc13 [AZD5991] + C=CCn1c(=O)c2cnc(Nc3ccc(N4CCN(C)CC4)cc3)nc2n1-c1cccc(C(C)(C)O)n1 [AZD1775] (first compound max 1 µM, partner max 1 µM) | -0.0065 | 0.045 | -0.0522 | 0.001 | 0.0055 | -0.0391 | 0.0218 | -0.0421 | 0.0023 | -0.0347 | 0.0081 | 0.0734 | -0.0023 | 0.0319 | -0.0002 | 0.0698 | -0.0152 | 0.005 | -0.0385 | 0.0446
CC1(C)CCC(CN2CCN(c3ccc(C(=O)NS(=O)(=O)c4ccc(NCC5CCOCC5)c([N+](=O)[O-])c4)c(Oc4cnc5[nH]ccc5c4)c3)CC2)=C(c2ccc(Cl)cc2)C1 [Venetoclax] + C[C@@H](Nc1cc(F)cc(F)c1)c1cc(C(=O)N(C)C)cc2c(=O)cc(N3CCOCC3)oc12 [AZD8186] (first compound max 1 µM, 7x7, partner max 3 µM) | -0.0423 | -0.0394 | 0.0021 | 0.0109 | 0.122 | -0.111 | -0.0397 | 0.0371 | -0.0297 | 0.0083 | 0.0092 | -0.0218 | -0.0502 | -0.05 | -0.049 | -0.0984 | 0.0547 | -0.0358 | -0.055 | -0.0258
CC1(C)CCC(CN2CCN(c3ccc(C(=O)NS(=O)(=O)c4ccc(NCC5CCOCC5)c([N+](=O)[O-])c4)c(Oc4cnc5[nH]ccc5c4)c3)CC2)=C(c2ccc(Cl)cc2)C1 [Venetoclax] + Cn1cnc2c(F)c(Nc3ccc(Br)cc3Cl)c(C(=O)NOCCO)cc21 [Selumetinib] (first compound max 1 µM, 7x7, partner max 3 µM) | -0.0583 | -0.0088 | -0.0466 | 0.0315 | -0.0245 | -0.0402 | -0.0393 | -0.0357 | 0.0028 | -0.0252 | -0.0175 | -0.0354 | -0.0449 | -0.0214 | 0.0171 | -0.0624 | 0.0155 | -0.0736 | -0.0255 | -0.0877
